Measurements from ChEMBL document CHEMBL5338805, “Discovery of the First Subnanomolar PPARα/δ Dual Agonist for the Treatment of Cholestatic Liver Diseases” (J Med Chem, 2023).
Calls of active or inactive are those of the source. The calls are words filed in the database; no cut-off is given here.

Key:
[1] = target: Bile acid receptor (Homo sapiens) (UniProt Q96RI1); assay: Agonist activity at FXR (unknown origin) transfected in african green monkey COS7 cells assessed transactivation incubated at 1 uM for 16 hrs by luciferase assay; type: cell-based
[2] = target: Retinoic acid receptor alpha (Homo sapiens) (UniProt P10276); assay: Agonist activity at RARalpha (unknown origin) transfected in african green monkey COS7 cells assessed transactivation incubated at 1 uM for 16 hrs by luciferase assay; type: cell-based
[3] = target: Retinoic acid receptor RXR-gamma (Homo sapiens) (UniProt P48443); assay: Agonist activity at RXRgamma (unknown origin) transfected in african green monkey COS7 cells assessed transactivation incubated at 1 uM for 16 hrs by luciferase assay; type: cell-based
[4] = target: Thyroid hormone receptor beta (Homo sapiens) (UniProt P10828); assay: Agonist activity at THRbeta (unknown origin) transfected in african green monkey COS7 cells assessed transactivation incubated at 1 uM for 16 hrs by luciferase assay; type: cell-based
[5] = target: Peroxisome proliferator-activated receptor alpha (Homo sapiens) (UniProt Q07869); assay: Binding affinity to PPARalpha LBD (unknown origin) assessed as thermal stability by measuring change in melting temperature by thermal shift assay; conditions: filed as agonist, dose 0.625-10 µM
[6] = Stability in human liver microsome assessed as intrinsic clearance at 1 uM for 0 to 45 mins by LC/MS-8050 analysis; type: ADME; conditions: liver microsomes, time 0-45 min, read-out: CLH
[7] = Clearance in fasted Sprague-Dawley rat at 2 mg/kg, IV measured at 0.083 to 24 hrs by LC-MS/MS analysis; type: ADME, organism-based; conditions: in vivo, time 0.083-24 hrs
[8] = Clearance in fasted Sprague-Dawley rat at 10 mg/kg, po measured at 0.083 to 24 hrs by LC-MS/MS analysis; type: ADME, organism-based; conditions: in vivo, time 0.083-24 hrs
[9] = target: Voltage-gated inwardly rectifying potassium channel KCNH2 (Homo sapiens, UniProt Q12809); assay: Inhibition of human ERG by whole cell patch clamp method; type: toxicity
[10] = tested on: HEK293; assay: Cytotoxicity against HEK293 cells incubated upto 100 uM for 24 hrs by CCK8 assay; type: toxicity, cell-based; conditions: human, hek293, 24 h
[11] = tested on: HepG2; assay: Cytotoxicity against human HepG2 cells incubated upto 100 uM for 24 hrs by CCK8 assay; type: toxicity, cell-based; conditions: hepg2, 24 h
[12] = Acute toxicity in mouse assessed as lethal dose administered orally for 14 days; conditions: in vivo, po, 336 h, time 14 day
[13] = In vivo upregulation of PPAR alpha in C57BL/6JNifdc mouse liver administered orally for 3 days measured after 6 hrs of last administration by real-time PCR analysis; type: ADME, organism-based; conditions: po, 78 h, dose 0.03-0.1 mg/kg, time 3.25 day
[14] = In vivo upregulation of PPAR alpha in C57BL/6JNifdc mouse liver administered at 0.03 mg/kg, po for 3 days measured after 6 hrs of last administration by real-time PCR analysis; type: ADME, organism-based; conditions: 78 h, time 3.25 day
[15] = Down-streaming of Cyp7a1 gene expression in C57BL/6JNifdc mouse liver assessed as hepatic resorption of bile acid administered at 0.03 to 0.1 mg/kg, po for 3 days measured after 6 hrs of last administration by real-time PCR analysis; type: ADME, organism-based; conditions: in vivo, 78 h, dose 0.03-0.1 mg/kg, time 3.25 day
[16] = Down-streaming of NTCP gene expression in C57BL/6JNifdc mouse liver assessed as hepatic resorption of bile acid administered at 0.03 to 0.1 mg/kg, po for 3 days measured after 6 hrs of last administration by real-time PCR analysis; type: ADME, organism-based; conditions: in vivo, 78 h, dose 0.03-0.1 mg/kg, time 3.25 day
[17] = Upregulation of Mrp4 gene expression in C57BL/6JNifdc mouse liver assessed as increased efflux of bile acid administered at 0.03 to 0.1 mg/kg, po for 3 days measured after 6 hrs of last administration by real-time PCR analysis; type: ADME, organism-based; conditions: in vivo, 78 h, dose 0.03-0.1 mg/kg, time 3.25 day
[18] = Anti-cholestatic activity in ANIT-induced C57BL/6Nifdc mouse model assessed as decrease in serum alanine aminotransferase at 0.03 to 0.1 mg/kg, po upto 42 hrs measured after 48 hrs; type: ADME, organism-based; conditions: in vivo, 90 h, dose 0.03-0.1 mg/kg
[19] = Anti-cholestatic activity in ANIT-induced C57BL/6Nifdc mouse model assessed as decrease in serum aspartate aminotransferase at 0.03 to 0.1 mg/kg, po upto 42 hrs measured after 48 hrs; type: ADME, organism-based; conditions: in vivo, 90 h, dose 0.03-0.1 mg/kg
[20] = Anti-cholestatic activity in ANIT-induced C57BL/6Nifdc mouse model assessed as decrease in liver TCA at 0.03 to 0.1 mg/kg, po upto 42 hrs measured after 48 hrs; type: ADME, organism-based; conditions: in vivo, 90 h, dose 0.03-0.1 mg/kg
[21] = Anti-cholestatic activity in ANIT-induced C57BL/6Nifdc mouse model assessed as decrease in liver TCDCA at 0.03 to 0.1 mg/kg, po upto 42 hrs measured after 48 hrs; type: ADME, organism-based; conditions: in vivo, 90 h, dose 0.03-0.1 mg/kg
[22] = Anti-cholestatic activity in ANIT-induced C57BL/6Nifdc mouse model assessed as decrease in liver GCA at 0.03 to 0.1 mg/kg, po upto 42 hrs measured after 48 hrs; type: ADME, organism-based; conditions: in vivo, 90 h, dose 0.03-0.1 mg/kg
[23] = Anti-cholestatic activity in ANIT-induced C57BL/6Nifdc mouse model assessed as decrease in liver beta-MCA at 0.03 to 0.1 mg/kg, po upto 42 hrs measured after 48 hrs; type: ADME, organism-based; conditions: in vivo, 90 h, dose 0.03-0.1 mg/kg
[24] = Anti-cholestatic activity in ANIT-induced C57BL/6Nifdc mouse model assessed as downregulation of proinflammatory Ccl4 gene at 0.03 to 0.1 mg/kg, po upto 42 hrs measured after 48 hrs; type: ADME, organism-based; conditions: in vivo, 90 h, dose 0.03-0.1 mg/kg
[25] = Anti-cholestatic activity in ANIT-induced C57BL/6Nifdc mouse model assessed as decrease in liver 3-H-7, 12-Dkca at 0.03 to 0.1 mg/kg, po upto 42 hrs measured after 48 hrs; type: ADME, organism-based; conditions: in vivo, 90 h, dose 0.03-0.1 mg/kg
[26] = Anti-cholestatic activity in ANIT-induced C57BL/6Nifdc mouse model assessed as decrease in liver TUDCA at 0.03 to 0.1 mg/kg, po upto 42 hrs measured after 48 hrs; type: ADME, organism-based; conditions: in vivo, 90 h, dose 0.03-0.1 mg/kg
[27] = Anti-cholestatic activity in ANIT-induced C57BL/6Nifdc mouse model assessed as decrease in liver 3-DHCA at 0.03 to 0.1 mg/kg, po upto 42 hrs measured after 48 hrs; type: ADME, organism-based; conditions: in vivo, 90 h, dose 0.03-0.1 mg/kg
[28] = Anti-cholestatic activity in ANIT-induced C57BL/6Nifdc mouse model assessed as decrease in liver GHCA at 0.03 to 0.1 mg/kg, po upto 42 hrs measured after 48 hrs; type: ADME, organism-based; conditions: in vivo, 90 h, dose 0.03-0.1 mg/kg
[29] = Anti-fibrosis activity in Ccl4-induced C57BL/6Nifdc mouse model assessed as reversal of increased Col1a1 administered orally for 3 weeks by Western blot analysis; type: ADME; conditions: in vivo, po, 504 h, dose 0.03-0.1 mg/kg
[30] = Anti-fibrosis activity in Ccl4-induced C57BL/6Nifdc mouse model assessed as decrease in inflammatory cells administered orally for 3 weeks; type: ADME, cell-based; conditions: in vivo, po, 504 h, dose 0.03-0.1 mg/kg
[31] = Down-streaming of Cyp27a1 gene expression in C57BL/6JNifdc mouse liver assessed as hepatic resorption of bile acid administered at 0.03 mg/kg, po for 3 days measured after 6 hrs of last administration by real-time PCR analysis; type: ADME, organism-based; conditions: in vivo, 78 h
[32] = Down-streaming of Oatp1 gene expression in C57BL/6JNifdc mouse liver assessed as hepatic resorption of bile acid administered at 0.03 mg/kg, po for 3 days measured after 6 hrs of last administration by real-time PCR analysis; type: ADME, organism-based; conditions: in vivo, 78 h

Sequence of Peroxisome proliferator-activated receptor alpha (Homo sapiens) (Q07869 whole entry, the tested form may be a part): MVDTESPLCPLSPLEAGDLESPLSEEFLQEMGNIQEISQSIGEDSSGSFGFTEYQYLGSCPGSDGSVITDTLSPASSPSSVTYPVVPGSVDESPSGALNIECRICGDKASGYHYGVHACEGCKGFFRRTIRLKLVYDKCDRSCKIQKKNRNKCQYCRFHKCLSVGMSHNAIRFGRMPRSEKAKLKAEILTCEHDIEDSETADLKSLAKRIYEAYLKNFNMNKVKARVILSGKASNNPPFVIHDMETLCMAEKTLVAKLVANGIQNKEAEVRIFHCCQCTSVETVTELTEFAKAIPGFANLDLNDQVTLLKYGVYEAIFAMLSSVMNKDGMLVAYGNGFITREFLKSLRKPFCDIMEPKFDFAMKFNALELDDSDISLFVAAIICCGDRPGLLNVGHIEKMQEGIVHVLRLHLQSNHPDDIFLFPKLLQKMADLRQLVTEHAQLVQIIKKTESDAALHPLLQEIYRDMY
Sequence of Retinoic acid receptor alpha (Homo sapiens) (P10276 whole entry): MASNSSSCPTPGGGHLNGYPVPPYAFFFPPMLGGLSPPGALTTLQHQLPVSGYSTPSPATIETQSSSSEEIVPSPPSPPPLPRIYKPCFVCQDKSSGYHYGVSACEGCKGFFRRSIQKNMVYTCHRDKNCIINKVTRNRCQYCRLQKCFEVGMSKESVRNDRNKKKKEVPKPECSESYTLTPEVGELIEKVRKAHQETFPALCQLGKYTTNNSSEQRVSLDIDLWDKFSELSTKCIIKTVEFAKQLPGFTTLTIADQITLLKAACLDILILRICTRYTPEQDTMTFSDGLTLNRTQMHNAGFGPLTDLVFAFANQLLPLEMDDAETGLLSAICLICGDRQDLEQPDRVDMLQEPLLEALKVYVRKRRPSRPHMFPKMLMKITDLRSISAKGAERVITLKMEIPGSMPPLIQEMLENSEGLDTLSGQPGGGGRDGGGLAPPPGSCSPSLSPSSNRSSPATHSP
Sequence of Voltage-gated inwardly rectifying potassium channel KCNH2 (Q12809 whole entry): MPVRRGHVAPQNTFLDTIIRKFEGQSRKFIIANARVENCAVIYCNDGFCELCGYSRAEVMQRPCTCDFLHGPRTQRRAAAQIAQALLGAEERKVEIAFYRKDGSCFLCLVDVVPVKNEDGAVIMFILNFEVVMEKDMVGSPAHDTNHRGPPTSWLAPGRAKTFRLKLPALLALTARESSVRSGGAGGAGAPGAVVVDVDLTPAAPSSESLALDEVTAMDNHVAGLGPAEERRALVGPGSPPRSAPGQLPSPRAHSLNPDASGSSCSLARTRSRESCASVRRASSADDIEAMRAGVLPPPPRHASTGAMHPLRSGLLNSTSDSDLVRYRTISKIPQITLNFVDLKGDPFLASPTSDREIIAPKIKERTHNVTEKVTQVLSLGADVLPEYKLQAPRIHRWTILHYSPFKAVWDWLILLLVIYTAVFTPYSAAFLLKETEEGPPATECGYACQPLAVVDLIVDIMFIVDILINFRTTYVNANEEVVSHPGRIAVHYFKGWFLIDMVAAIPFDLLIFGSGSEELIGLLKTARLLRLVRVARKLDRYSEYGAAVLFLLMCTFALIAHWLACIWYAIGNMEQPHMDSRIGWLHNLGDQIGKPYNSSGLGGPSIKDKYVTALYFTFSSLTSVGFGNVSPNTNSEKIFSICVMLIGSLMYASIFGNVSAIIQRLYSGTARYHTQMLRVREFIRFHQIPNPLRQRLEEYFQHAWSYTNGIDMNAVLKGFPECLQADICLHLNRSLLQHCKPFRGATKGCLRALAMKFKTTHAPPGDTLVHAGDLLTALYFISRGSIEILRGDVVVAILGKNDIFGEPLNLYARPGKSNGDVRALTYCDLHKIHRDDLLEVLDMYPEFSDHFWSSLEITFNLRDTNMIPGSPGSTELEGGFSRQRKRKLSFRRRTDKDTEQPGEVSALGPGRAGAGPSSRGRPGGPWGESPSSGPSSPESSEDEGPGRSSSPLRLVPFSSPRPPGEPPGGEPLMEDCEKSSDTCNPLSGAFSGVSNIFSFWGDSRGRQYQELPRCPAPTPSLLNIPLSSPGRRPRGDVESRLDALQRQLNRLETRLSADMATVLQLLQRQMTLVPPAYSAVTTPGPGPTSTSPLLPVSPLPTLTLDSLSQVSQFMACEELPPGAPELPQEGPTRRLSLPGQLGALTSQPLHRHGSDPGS
Sequence of Bile acid receptor (Homo sapiens) (Q96RI1 whole entry): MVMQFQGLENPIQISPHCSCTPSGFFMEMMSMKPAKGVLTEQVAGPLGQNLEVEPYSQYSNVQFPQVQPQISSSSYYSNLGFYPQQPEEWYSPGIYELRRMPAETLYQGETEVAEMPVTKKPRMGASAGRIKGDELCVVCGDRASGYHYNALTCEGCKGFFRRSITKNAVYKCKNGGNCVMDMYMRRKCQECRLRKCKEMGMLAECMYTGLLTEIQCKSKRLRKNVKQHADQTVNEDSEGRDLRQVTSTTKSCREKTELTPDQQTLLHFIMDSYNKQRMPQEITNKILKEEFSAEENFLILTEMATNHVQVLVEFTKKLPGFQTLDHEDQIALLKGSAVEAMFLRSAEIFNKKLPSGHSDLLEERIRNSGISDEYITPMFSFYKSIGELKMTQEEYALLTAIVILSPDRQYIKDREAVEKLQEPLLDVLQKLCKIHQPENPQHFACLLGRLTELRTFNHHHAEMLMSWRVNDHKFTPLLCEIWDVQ
Sequence of Retinoic acid receptor RXR-gamma (Homo sapiens) (P48443 whole entry): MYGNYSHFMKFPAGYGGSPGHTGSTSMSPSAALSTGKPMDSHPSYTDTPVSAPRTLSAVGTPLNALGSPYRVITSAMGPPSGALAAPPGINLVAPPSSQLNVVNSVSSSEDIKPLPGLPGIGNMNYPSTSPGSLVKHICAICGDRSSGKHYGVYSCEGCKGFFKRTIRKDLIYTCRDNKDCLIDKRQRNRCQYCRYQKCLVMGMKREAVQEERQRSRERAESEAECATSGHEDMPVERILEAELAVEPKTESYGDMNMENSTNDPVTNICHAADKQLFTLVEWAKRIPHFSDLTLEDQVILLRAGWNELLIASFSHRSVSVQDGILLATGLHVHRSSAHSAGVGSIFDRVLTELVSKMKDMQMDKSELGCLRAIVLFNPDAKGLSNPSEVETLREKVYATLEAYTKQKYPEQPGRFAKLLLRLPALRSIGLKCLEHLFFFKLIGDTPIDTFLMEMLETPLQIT
Sequence of Thyroid hormone receptor beta (Homo sapiens) (P10828 whole entry, the tested form may be a part): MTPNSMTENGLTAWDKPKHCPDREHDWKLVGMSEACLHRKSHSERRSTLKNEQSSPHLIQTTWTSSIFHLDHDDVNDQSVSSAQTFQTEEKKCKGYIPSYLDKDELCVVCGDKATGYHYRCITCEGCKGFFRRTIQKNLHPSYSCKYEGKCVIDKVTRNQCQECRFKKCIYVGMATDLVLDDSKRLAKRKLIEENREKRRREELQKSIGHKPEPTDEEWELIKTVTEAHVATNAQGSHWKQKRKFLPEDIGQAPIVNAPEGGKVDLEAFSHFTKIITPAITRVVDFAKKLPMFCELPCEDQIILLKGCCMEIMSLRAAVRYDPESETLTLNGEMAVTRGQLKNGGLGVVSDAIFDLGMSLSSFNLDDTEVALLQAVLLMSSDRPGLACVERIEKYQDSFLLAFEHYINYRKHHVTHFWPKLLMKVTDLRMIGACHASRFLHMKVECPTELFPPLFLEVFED

For `Cc1cc(CN2C(=O)CN(c3ccc(C(F)(F)F)cc3)C2=O)cc(C)c1OC(C)(C)C(=O)O`, the Activity [1] was “inactive”, the Activity [2] was “inactive” and the Activity [3] was “inactive”. The Activity [4] was “inactive”, the deltaTm [5] was “Dose-Dependent Effect” and the CLint scaled at 1 µM [6] was 6.24 mL/min/kg. It also gave a CL [7] of 8.4 mL/min/kg, a CL [8] of 7.6 mL/min/kg and an IC50 [9] of over 30 µM. The Activity [10] was “Non-Toxic”, the Activity [11] was “Non-Toxic” and the LD [12] was over 2000 mg/kg. The Activity [13] was “Dose-Dependent Effect”, the Activity [14] was “Active” and the Activity [15] was “Active”. The Activity [16] was “Active”, the Activity [17] was “Active” and the Activity [18] was “Active”. The Activity [19] was “Active”, the Activity [20] was “Active” and the Activity [21] was “Active”. For the same compound, the Activity [22] was “Active”, the Activity [23] was “Active” and the Activity [24] was “Active”. For the same compound, the Activity [25] was “Active”, the Activity [26] was “Active” and the Activity [27] was “Active”. The Activity [28] was “Active”, the Activity [29] was “Dose-Dependent Effect” and the Activity [30] was “Dose-Dependent Effect”. For the same compound, the Activity [31] was “Active” and the Activity [32] was “Active”.
